{
  "source": "patent US20230074545A1",
  "about": "“TREATMENT OF CANCER WITH CDK12/13 INHIBITORS” (Kinnate Biopharma Inc., priority 2019, published 2023)",
  "experiment_in_all_cases": "Radiometric kinase panel",
  "format_in_all_cases": "biochemical",
  "key": {"ACVR1": {"biological_target": "T1, ACVR1 (Homo sapiens, UniProt Q04771)", "T1 construct": "purchased ProQinase GmbH (Reaction Biology)", "protocol": "(§1) The compounds 1-5 (see Table 1) were assayed for kinase activity at ProQinase (ProQinase GmbH, Reaction Biology; Freiburg, Germany) using their commercially available radiometric kinase assay services. Briefly, the compounds were provided as solids and were dissolved to 1×10^−03 M/100% DMSO stock solutions on the day of assay. All protein kinases were provided by ProQinase and were expressed in Sf9 insect cells or in E. coli as recombinant GST-fusion proteins or His-tagged proteins, either as full-length or enzymatically active fragments. All kinases were produced from human cDNAs and purified by either GSH-affinity chromatography or immobilized metal. The purity of the protein kinases was examined by SDS-PAGE/Coomassie staining, the identity was checked by mass spectroscopy. A radiometric protein kinase assay (^33PanQinase® Activity Assay) was used for measuring the kinase activity of the protein kinase. All kinase assays were performed in 96-well FlashPlates™ from PerkinElmer (Boston, Mass., USA) in a 50 microliter reaction volume. The reaction cocktail was pipetted in four steps in the following order: 1) 25 microliter of assay buffer (standard buffer/[gamma-^33P]-ATP); 2) 10 microliter of ATP solution (in H2O); 3) 5 microliter of test compound (in 10% DMSO); 4) 10 microliter of enzyme/substrate mixture.\n(§2) Compound 4 was analyzed for selectivity against a panel of other kinases at ProQinase using their commercially available radiometric kinase assay services and the methods described in Example 1."}, "ASK1": {"biological_target": "T2, ASK1 (Homo sapiens, UniProt Q99683)", "T2 construct": "either as full-length or enzymatically active fragments; purchased ProQinase GmbH (Reaction Biology)", "protocol": "as §1, §2"}, "BRSK2": {"biological_target": "T3, BRSK2 (Homo sapiens, UniProt Q8IWQ3)", "T3 construct": "either as full-length or enzymatically active fragments; purchased ProQinase GmbH (Reaction Biology)", "protocol": "as §1, §2"}, "CDC42BPA": {"biological_target": "T4, CDC42BPA (Homo sapiens, UniProt Q5VT25)", "T4 construct": "either as full-length or enzymatically active fragments; purchased ProQinase GmbH (Reaction Biology); host or cells: Sf9 insect cells or E. coli", "protocol": "as §1, §2"}, "CDK1/CycA2": {"biological_target": "T5, CDK1/CycA2 (Homo sapiens, UniProt P06493)", "T5 construct": "either as full-length or enzymatically active fragments; purchased ProQinase GmbH (Reaction Biology)", "T5 sequence (P06493 whole entry, the tested form may be a part)": "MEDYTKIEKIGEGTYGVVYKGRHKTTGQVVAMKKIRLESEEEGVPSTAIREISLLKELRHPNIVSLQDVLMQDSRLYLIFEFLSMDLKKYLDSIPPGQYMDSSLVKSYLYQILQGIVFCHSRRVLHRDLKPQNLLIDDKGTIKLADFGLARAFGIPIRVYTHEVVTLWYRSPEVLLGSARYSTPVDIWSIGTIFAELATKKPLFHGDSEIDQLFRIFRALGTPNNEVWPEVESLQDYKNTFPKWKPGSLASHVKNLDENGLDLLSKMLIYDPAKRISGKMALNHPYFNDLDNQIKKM", "T5 sequence (P20248 whole entry partner, the tested form may be a part)": "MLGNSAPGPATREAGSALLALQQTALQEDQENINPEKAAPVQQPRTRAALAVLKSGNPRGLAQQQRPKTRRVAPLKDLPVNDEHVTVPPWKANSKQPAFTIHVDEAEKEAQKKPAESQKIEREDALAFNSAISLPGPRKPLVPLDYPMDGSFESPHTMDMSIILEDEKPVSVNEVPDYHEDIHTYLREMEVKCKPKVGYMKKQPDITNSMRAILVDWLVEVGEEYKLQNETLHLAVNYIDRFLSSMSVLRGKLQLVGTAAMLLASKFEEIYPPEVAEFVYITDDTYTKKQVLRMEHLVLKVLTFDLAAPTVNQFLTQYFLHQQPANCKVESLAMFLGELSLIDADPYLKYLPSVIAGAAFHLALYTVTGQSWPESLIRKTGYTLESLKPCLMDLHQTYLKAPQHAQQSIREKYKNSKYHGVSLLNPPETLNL", "protocol": "as §1, §2"}, "CDK12/CycK": {"biological_target": "T6, CDK12/CycK (Homo sapiens, UniProt Q9NYV4)", "T6 construct": "either as full-length or enzymatically active fragments; purchased ProQinase GmbH (Reaction Biology)", "protocol": "as §1, §2"}, "CDK2/CycD1": {"biological_target": "T7, CDK2/CycD1 (Homo sapiens, UniProt P24941)", "T7 construct": "either as full-length or enzymatically active fragments; purchased ProQinase GmbH (Reaction Biology)", "protocol": "as §1, §2"}, "CDK4/CycD3": {"biological_target": "T8, CDK4/CycD3 (Homo sapiens, UniProt P11802)", "T8 construct": "either as full-length or enzymatically active fragments; purchased ProQinase GmbH (Reaction Biology); host or cells: Sf9 insect cells or E. coli (not specified per kinase)", "T8 sequence (P11802 whole entry, the tested form may be a part)": "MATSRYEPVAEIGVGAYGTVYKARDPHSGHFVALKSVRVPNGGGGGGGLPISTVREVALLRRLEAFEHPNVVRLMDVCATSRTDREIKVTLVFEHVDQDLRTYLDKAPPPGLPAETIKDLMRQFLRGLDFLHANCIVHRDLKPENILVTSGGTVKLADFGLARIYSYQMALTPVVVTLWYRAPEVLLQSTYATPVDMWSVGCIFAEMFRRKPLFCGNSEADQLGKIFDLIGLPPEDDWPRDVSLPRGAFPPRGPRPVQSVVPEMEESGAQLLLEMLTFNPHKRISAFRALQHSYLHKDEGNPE", "T8 sequence (P30281 whole entry partner, the tested form may be a part)": "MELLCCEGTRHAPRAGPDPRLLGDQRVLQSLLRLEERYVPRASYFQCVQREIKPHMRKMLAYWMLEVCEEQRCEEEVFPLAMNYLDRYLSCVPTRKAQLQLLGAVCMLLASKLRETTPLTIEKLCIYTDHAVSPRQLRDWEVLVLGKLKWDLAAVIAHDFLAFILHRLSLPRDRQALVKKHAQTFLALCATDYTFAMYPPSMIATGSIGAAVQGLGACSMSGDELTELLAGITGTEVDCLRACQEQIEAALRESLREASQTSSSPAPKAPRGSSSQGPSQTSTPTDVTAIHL", "protocol": "as §1, §2"}, "CK1alpha1": {"biological_target": "T9, CK1alpha1 (Homo sapiens, UniProt P48729)", "T9 construct": "either as full-length or enzymatically active fragments; purchased ProQinase GmbH (Reaction Biology); host or cells: Sf9 insect cells or E. coli", "protocol": "as §1, §2"}, "CK1epsilon": {"biological_target": "T10, CK1epsilon (Homo sapiens, UniProt P49674)", "T10 construct": "either as full-length or enzymatically active fragments; purchased ProQinase GmbH (Reaction Biology)", "protocol": "as §1, §2"}, "CK2alpha2": {"biological_target": "T11, CK2alpha2 (Homo sapiens, UniProt P19784)", "T11 construct": "either as full-length or enzymatically active fragments; purchased ProQinase GmbH (Reaction Biology)", "T11 sequence (P19784 whole entry, the tested form may be a part)": "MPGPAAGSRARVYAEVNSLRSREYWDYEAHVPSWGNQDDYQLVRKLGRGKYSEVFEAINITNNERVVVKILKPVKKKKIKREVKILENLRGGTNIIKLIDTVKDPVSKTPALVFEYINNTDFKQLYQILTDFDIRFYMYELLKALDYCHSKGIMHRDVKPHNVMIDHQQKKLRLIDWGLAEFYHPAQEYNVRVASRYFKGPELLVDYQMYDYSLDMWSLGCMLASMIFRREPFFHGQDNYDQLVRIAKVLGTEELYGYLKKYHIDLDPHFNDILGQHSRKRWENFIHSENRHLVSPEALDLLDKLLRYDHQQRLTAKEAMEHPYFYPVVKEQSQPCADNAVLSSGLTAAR", "protocol": "as §1, §2"}, "CLK3": {"biological_target": "T12, CLK3 (Homo sapiens, UniProt P49761)", "T12 construct": "either as full-length or enzymatically active fragments; purchased ProQinase GmbH (Reaction Biology)", "protocol": "as §1, §2"}, "DYRK1B": {"biological_target": "T13, DYRK1B (Homo sapiens, UniProt Q9Y463)", "T13 construct": "either as full-length or enzymatically active fragments; purchased ProQinase GmbH (Reaction Biology)", "protocol": "as §1, §2"}, "EPHA7": {"biological_target": "T14, EPHA7 (Homo sapiens, UniProt Q15375)", "T14 construct": "either as full-length or enzymatically active fragments; purchased ProQinase GmbH (Reaction Biology)", "protocol": "as §1, §2"}, "GRK2": {"biological_target": "T15, GRK2 (Homo sapiens, UniProt P25098)", "T15 construct": "either as full-length or enzymatically active fragments; purchased ProQinase GmbH (Reaction Biology)", "protocol": "as §1, §2"}, "GSK3beta": {"biological_target": "T16, GSK3beta (Homo sapiens, UniProt P49841)", "T16 construct": "either as full-length or enzymatically active fragments; purchased ProQinase GmbH (Reaction Biology)", "T16 sequence (P49841 whole entry, the tested form may be a part)": "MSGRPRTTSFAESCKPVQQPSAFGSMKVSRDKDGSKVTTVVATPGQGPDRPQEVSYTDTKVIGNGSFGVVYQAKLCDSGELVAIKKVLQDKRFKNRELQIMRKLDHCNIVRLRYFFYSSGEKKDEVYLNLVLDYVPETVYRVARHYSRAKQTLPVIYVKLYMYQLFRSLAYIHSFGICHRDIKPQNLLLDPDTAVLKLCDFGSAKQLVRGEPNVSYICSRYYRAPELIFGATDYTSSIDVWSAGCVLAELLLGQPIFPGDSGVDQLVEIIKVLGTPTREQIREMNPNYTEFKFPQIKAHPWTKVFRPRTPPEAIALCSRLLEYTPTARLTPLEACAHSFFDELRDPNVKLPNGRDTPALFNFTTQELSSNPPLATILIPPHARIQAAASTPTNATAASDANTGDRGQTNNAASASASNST", "protocol": "as §1, §2"}, "IKKalpha": {"biological_target": "T17, IKKalpha (Homo sapiens, UniProt O15111)", "T17 construct": "either as full-length or enzymatically active fragments; purchased ProQinase GmbH (Reaction Biology)", "protocol": "as §1, §2"}, "LIMK1": {"biological_target": "T18, LIMK1 (Homo sapiens, UniProt P53667)", "T18 construct": "either as full-length or enzymatically active fragments; purchased ProQinase GmbH (Reaction Biology)", "protocol": "as §1, §2"}, "MINK1": {"biological_target": "T19, MINK1 (Homo sapiens, UniProt Q8N4C8)", "T19 construct": "either as full-length or enzymatically active fragments; purchased ProQinase GmbH (Reaction Biology)", "protocol": "as §1, §2"}, "MST3": {"biological_target": "T20, MST3 (Homo sapiens, UniProt Q9Y6E0)", "T20 construct": "either as full-length or enzymatically active fragments; purchased ProQinase GmbH (Reaction Biology)", "protocol": "as §1, §2"}, "MYLK2": {"biological_target": "T21, MYLK2 (Homo sapiens, UniProt Q9H1R3)", "T21 construct": "either as full-length or enzymatically active fragments; purchased ProQinase GmbH (Reaction Biology); host or cells: Sf9 insect cells or E. coli", "T21 sequence (Q9H1R3 whole entry, the tested form may be a part)": "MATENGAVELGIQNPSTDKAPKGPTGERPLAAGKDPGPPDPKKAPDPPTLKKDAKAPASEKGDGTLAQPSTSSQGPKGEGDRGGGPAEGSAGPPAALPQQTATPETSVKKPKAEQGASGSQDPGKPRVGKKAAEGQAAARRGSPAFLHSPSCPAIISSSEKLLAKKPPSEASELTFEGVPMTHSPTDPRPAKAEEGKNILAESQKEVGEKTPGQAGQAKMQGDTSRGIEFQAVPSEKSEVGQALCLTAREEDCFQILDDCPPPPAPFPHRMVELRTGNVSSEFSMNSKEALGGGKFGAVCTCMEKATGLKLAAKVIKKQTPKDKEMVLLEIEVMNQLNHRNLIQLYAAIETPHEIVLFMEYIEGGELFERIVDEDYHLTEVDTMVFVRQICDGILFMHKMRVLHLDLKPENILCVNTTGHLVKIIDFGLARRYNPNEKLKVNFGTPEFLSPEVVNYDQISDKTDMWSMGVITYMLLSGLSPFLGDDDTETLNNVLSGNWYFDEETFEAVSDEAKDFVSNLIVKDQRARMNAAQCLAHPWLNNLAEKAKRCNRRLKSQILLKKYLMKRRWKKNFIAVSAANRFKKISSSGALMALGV", "protocol": "as §1, §2"}, "PKCalpha": {"biological_target": "T22, PKCalpha (Homo sapiens, UniProt P17252)", "T22 construct": "either as full-length or enzymatically active fragments; purchased ProQinase GmbH (Reaction Biology)", "protocol": "as §1, §2"}, "PKMYT1": {"biological_target": "T23, PKMYT1 (Homo sapiens, UniProt Q99640)", "T23 construct": "either as full-length or enzymatically active fragments; purchased ProQinase GmbH (Reaction Biology)", "protocol": "as §1, §2"}, "RIPK4": {"biological_target": "T24, RIPK4 (Homo sapiens, UniProt P57078)", "T24 construct": "either as full-length or enzymatically active fragments; purchased ProQinase GmbH (Reaction Biology)", "protocol": "as §1, §2"}, "RON": {"biological_target": "T25, RON (Homo sapiens, UniProt Q04912)", "T25 construct": "purchased ProQinase GmbH (Reaction Biology)", "T25 sequence (Q04912 25-1400)": "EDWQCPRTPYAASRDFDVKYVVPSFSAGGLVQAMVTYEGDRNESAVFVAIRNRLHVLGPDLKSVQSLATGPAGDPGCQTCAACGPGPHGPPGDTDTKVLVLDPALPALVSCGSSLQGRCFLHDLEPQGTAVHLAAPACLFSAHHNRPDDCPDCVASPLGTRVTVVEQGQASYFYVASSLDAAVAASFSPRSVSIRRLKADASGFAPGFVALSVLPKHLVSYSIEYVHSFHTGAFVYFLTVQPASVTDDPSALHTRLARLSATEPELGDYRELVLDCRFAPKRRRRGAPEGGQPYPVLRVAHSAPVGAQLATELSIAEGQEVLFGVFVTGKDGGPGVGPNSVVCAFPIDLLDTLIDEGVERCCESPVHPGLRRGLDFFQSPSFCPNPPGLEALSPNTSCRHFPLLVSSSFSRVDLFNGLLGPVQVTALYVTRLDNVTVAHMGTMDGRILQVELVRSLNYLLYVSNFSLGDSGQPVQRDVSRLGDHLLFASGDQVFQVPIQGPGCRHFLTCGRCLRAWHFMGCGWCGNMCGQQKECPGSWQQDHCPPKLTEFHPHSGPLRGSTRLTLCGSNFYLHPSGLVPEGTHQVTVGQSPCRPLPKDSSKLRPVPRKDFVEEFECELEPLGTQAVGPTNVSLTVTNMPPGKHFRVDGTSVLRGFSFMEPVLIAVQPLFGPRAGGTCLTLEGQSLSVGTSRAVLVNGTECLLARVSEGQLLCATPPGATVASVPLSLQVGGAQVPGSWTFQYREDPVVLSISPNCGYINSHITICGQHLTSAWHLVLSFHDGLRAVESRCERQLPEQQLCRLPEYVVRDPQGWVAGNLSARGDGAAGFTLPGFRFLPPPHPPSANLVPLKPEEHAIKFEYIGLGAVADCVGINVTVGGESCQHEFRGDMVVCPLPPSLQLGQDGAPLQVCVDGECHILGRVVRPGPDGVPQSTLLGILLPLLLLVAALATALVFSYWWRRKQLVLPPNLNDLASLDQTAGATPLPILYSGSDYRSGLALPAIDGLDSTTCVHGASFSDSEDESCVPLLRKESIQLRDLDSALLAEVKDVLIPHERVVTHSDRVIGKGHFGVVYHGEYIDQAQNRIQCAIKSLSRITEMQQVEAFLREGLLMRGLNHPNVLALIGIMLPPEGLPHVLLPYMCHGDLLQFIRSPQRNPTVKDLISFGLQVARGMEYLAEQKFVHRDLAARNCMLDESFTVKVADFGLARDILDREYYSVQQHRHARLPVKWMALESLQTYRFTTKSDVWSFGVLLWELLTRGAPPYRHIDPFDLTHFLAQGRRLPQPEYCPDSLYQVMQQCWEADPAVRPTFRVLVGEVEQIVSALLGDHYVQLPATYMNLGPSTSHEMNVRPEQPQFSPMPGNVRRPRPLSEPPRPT", "protocol": "as §1, §2"}, "RPS6KA4": {"biological_target": "T26, RPS6KA4 (Homo sapiens, UniProt O75676)", "T26 construct": "either as full-length or enzymatically active fragments; purchased ProQinase GmbH (Reaction Biology)", "T26 sequence (O75676 whole entry, the tested form may be a part)": "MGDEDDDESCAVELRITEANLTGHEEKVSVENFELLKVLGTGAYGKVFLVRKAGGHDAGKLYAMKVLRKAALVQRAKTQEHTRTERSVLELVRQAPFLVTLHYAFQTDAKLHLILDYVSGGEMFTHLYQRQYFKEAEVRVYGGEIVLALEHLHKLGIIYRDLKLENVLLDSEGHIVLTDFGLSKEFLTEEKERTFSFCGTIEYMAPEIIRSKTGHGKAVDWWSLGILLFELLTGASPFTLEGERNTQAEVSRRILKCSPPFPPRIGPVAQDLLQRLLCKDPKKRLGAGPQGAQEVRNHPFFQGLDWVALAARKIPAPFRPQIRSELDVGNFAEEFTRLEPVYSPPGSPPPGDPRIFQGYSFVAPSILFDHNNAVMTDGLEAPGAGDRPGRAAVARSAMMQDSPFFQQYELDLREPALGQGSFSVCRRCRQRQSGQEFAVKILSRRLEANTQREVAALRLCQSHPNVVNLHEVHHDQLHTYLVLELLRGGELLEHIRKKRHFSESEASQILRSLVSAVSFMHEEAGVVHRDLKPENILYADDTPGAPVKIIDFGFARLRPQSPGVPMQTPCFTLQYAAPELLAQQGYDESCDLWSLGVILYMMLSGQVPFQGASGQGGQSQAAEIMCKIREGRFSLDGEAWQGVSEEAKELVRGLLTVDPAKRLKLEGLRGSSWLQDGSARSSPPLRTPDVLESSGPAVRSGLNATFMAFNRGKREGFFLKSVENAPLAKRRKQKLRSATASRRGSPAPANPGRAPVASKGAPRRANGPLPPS", "protocol": "as §1, §2"}, "SGK1": {"biological_target": "T27, SGK1 (Homo sapiens, UniProt O00141)", "T27 construct": "purchased ProQinase GmbH (Reaction Biology)", "protocol": "as §1, §2"}, "SNARK": {"biological_target": "T28, SNARK (Homo sapiens, UniProt Q9H093)", "T28 construct": "purchased ProQinase GmbH (Reaction Biology)", "protocol": "as §1, §2"}, "SRMS": {"biological_target": "T29, SRMS (Homo sapiens, UniProt Q9H3Y6)", "T29 construct": "purchased ProQinase GmbH (Reaction Biology)", "protocol": "as §1, §2"}, "STK17A": {"biological_target": "T30, STK17A (Homo sapiens, UniProt Q9UEE5)", "T30 construct": "either as full-length or enzymatically active fragments; purchased ProQinase GmbH (Reaction Biology)", "protocol": "as §1, §2"}, "TTK": {"biological_target": "T31, TTK (Homo sapiens, UniProt P33981)", "T31 construct": "either as full-length or enzymatically active fragments; purchased ProQinase GmbH (Reaction Biology); host or cells: Sf9 insect cells or E. coli", "protocol": "as §1, §2"}},
  "data": [
    {"smiles": "C=CC(=O)Nc1ccc(C(=O)N2CC[C@@H](Nc3ncc(C#N)cn3)C2)cc1", "note": "[Compound 4, (R)-N-(4-(3-((5-cyanopyrimidin-2-yl)amino)pyrrolidine-1-carbonyl)phenyl)acrylamide]", "values": [
      {"measurement": "inhibition at 1 µM", "setting": "ACVR1", "result": -1, "unit": "%"},
      {"measurement": "inhibition at 1 µM", "setting": "ASK1", "result": 7, "unit": "%"},
      {"measurement": "inhibition at 1 µM", "setting": "BRSK2", "result": -10, "unit": "%"},
      {"measurement": "inhibition at 1 µM", "setting": "CDC42BPA", "result": -16, "unit": "%"},
      {"measurement": "inhibition at 1 µM", "setting": "CDK1/CycA2", "result": 17, "unit": "%"},
      {"measurement": "inhibition at 1 µM", "setting": "CDK12/CycK", "result": 90, "unit": "%"},
      {"measurement": "inhibition at 1 µM", "setting": "CDK2/CycD1", "result": 18, "unit": "%"},
      {"measurement": "inhibition at 1 µM", "setting": "CDK4/CycD3", "result": 10, "unit": "%"},
      {"measurement": "inhibition at 1 µM", "setting": "CK1alpha1", "result": 12, "unit": "%"},
      {"measurement": "inhibition at 1 µM", "setting": "CK1epsilon", "result": -13, "unit": "%"},
      {"measurement": "inhibition at 1 µM", "setting": "CK2alpha2", "result": -14, "unit": "%"},
      {"measurement": "inhibition at 1 µM", "setting": "CLK3", "result": -9, "unit": "%"},
      {"measurement": "inhibition at 1 µM", "setting": "DYRK1B", "result": 3, "unit": "%"},
      {"measurement": "inhibition at 1 µM", "setting": "EPHA7", "result": -3, "unit": "%"},
      {"measurement": "inhibition at 1 µM", "setting": "GRK2", "result": 7, "unit": "%"},
      {"measurement": "inhibition at 1 µM", "setting": "GSK3beta", "result": 8, "unit": "%"},
      {"measurement": "inhibition at 1 µM", "setting": "IKKalpha", "result": -8, "unit": "%"},
      {"measurement": "inhibition at 1 µM", "setting": "LIMK1", "result": 7, "unit": "%"},
      {"measurement": "inhibition at 1 µM", "setting": "MINK1", "result": 16, "unit": "%"},
      {"measurement": "inhibition at 1 µM", "setting": "MST3", "result": 3, "unit": "%"},
      {"measurement": "inhibition at 1 µM", "setting": "MYLK2", "result": 12, "unit": "%"},
      {"measurement": "inhibition at 1 µM", "setting": "PKCalpha", "result": -5, "unit": "%"},
      {"measurement": "inhibition at 1 µM", "setting": "PKMYT1", "result": 5, "unit": "%"},
      {"measurement": "inhibition at 1 µM", "setting": "RIPK4", "result": -3, "unit": "%"},
      {"measurement": "inhibition at 1 µM", "setting": "RON", "result": -1, "unit": "%"},
      {"measurement": "inhibition at 1 µM", "setting": "RPS6KA4", "result": 5, "unit": "%"},
      {"measurement": "inhibition at 1 µM", "setting": "SGK1", "result": -2, "unit": "%"},
      {"measurement": "inhibition at 1 µM", "setting": "SNARK", "result": 0, "unit": "%"},
      {"measurement": "inhibition at 1 µM", "setting": "SRMS", "result": -2, "unit": "%"},
      {"measurement": "inhibition at 1 µM", "setting": "STK17A", "result": -4, "unit": "%"},
      {"measurement": "inhibition at 1 µM", "setting": "TTK", "result": 12, "unit": "%"}
    ]}
  ]
}
